From patent US20240287052A1, “NOVEL OXAZOLE DERIVATIVE AND PHARMACEUTICAL COMPOSITION FOR PREVENTING OR TREATING ALLERGIC DISEASES COMPRISING THE SAME” (AZCURIS CO., LTD., priority 2021, published 2024)
Where two headings read alike, the source gives them in different places.

How the values were obtained:
[1] = system: Human liver cancer cell line HepG2 cells; test: Cellular viability, WST-8 assay, without or with human liver microsomes; type: cell-based; details: for Cellular viability (%) (+) microsome: HepG2, with human liver microsomes; for Cellular viability (%) (−) microsome: HepG2, without human liver microsomes
Experimental: (§1) Human liver cancer cell line HepG2 cells were cultured in a medium (high glucose Dulbecco's Modified Eagle Medium, DMEM, HyClone) supplemented with 10% fetal bovine serum (FBS, HyClone) and 1% antibiotic in a thermostat maintained at 37° C. with 5% CO2.
(§2) HepG2 cells, which are adherent cells, were […] or presence of human liver microsomes (Gibco) and NADPH regenerating system.
(§3) Cell cultures were exchanged using […] of medium (high glucose Dulbecco's Modified Eagle Medium, DMEM, HyClone) and incubated for 24 hours.
(§4) After adding 10 μL of WST-8 (abCam), the absorbance was obtained at 460 nm after 5 seconds of orbital shaking with a microplate reader (Tecan, Spark©) 2 hours later.
(§5) The mean of the three values obtained in triplicate was calculated and expressed as % cellular viability compared to vehicle treatment.

IL33 and ST2 binding [2] = biological target: T1, IL33 and ST2 binding (Homo sapiens, UniProt O95760);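 also: plate ELISA with coated Flag-tagged human IL-33 and His-tagged human ST2, bound ST2 detected by anti-His HRP and TMB absorbance at 450 nm, 2 h compound incubation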
T1 sequence (O95760 112-270 limits assumed): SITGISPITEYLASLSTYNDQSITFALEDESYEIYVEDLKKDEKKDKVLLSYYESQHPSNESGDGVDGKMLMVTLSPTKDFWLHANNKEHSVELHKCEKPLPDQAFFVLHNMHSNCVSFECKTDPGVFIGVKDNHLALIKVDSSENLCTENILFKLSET

[3] = system: IL-6 secretion in the human mast cell line HMC 1.1; test: IL-6 production inhibition assay (IL-33 stimulated HMC 1.1 cells, IL-6 ELISA); type: cell-based; details: for inhibition at 0.1 µM: 0.1 μM compound, read-out: Inhibition of hIL-6 production (%) 0.1 μM; for inhibition at 0.1 µM / inhibition at 1 µM / inhibition at 10 µM: 24 hours; for inhibition at 1 µM: 1 μM compound, read-out: Inhibition of hIL-6 production (%) 1 μM; for inhibition at 10 µM: 10 μM compound, read-out: Inhibition of hIL-6 production (%) 10 μM; for EC50: read-out: Inhibition of hIL-6 production EC50
Experimental: Human mast cell line HMC 1.1 cells were cultured in medium (Iscove's Modified Dulbecco's Medium, IMDM, HyClone) supplemented with […] fetal bovine serum (FBS, HyClone) and 1% antibiotics and maintained at 37° C. with 5% CO2.
HMC 1.1 cells, which are non-adherent cells, were cultured in 0.5 mL of culture medium containing 200 nM of IL-33 wild type human recombinant protein after centrifugation of cells in culture flasks filled to […] capacity and incubated for 24 hours with […], 10 μM, 25 μM, 30 μM or 50 μM of Example compound.
Medium was harvested by centrifugation (2,000×g, 5 min) and stored at −80° C. until ELISA assay.
Experiments were performed according to the protocol using the Human IL-6 ELISA kit (abCam).
The average of the three values obtained in triplicate was calculated and the amount of IL-6 secretion was measured using a standard curve. The measured IL-6 secretion was converted to 100% based on the vehicle treatment sample value to obtain the vehicle %.

IL33 and ST2 binding [4] = biological target: T1, IL33 and ST2 binding; test: biochemical
[5] = Cellular viability, WST-8 assay, without or with human liver microsomes; type: cell-based
Experimental: as §1, §2, §3, §4, §5

[6] = HepG2, with human liver microsomes, read-out: CC50 (μM) (+) microsome
[7] = HepG2 cells, HepG2, without human liver microsomes, read-out: CC50 (μM) (−) microsome

SMILES	inhibition (IL33 and ST2 binding [2]; 30 µM)	inhibition (IL33 and ST2 binding [2]; 100 µM)	IC50 (IL33 and ST2 binding [4])	EC50 [3]	Cellular viability (%) (+) microsome ([1]; at 135 μM)	Cellular viability (%) (−) microsome ([1]; at 135 μM)	inhibition at 0.1 µM [3]	inhibition at 1 µM [3]	inhibition at 10 µM [3]	Cellular viability (%) (+) microsome ([1]; at 100 μM)	Cellular viability (%) (−) microsome ([1]; at 100 μM)	CC50 at 24 h [5, 6]	CC50 at 24 h [5, 7]	Cellular viability (%) (+) microsome ([1]; at 160 μM)	Cellular viability (%) (−) microsome ([1]; at 160 μM)
CNC(=O)c1nc(-c2ccc(C(F)(F)F)cc2)oc1-c1cccc(SC)c1 [Compound 290, N-Methyl-5-(3-(methylthio)phenyl)-2-(4-(trifluoromethyl)phenyl)oxazole-4-carboxamide]	112%	112%	4.51 µM		60 at %	47 at %	28%	49%	59%						
CCOC(=O)c1nc(-c2ccc(Cl)c(C(F)(F)F)c2)oc1-c1ccccc1 [Compound 98, Ethyl 2-(4-chloro-3-(trifluoromethyl)phenyl)-5-phenyloxazole-4-carboxylate]	110%	110%	5.21 µM					-12%	30%	90 at %	83 at %				
CCOC(=O)c1nc(-c2ccc(C(F)(F)F)cc2)oc1-c1ccccc1OC [Compound 44, Ethyl 5-(2-methoxyphenyl)-2-(4-(trifluoromethyl)phenyl)oxazole-4-carboxylate]	100%		1.26 µM	2.56 µM				38%	77%	99 at %	68 at %				
CN1CCN(CCNC(=O)c2nc(-c3cc(F)cc(F)c3)oc2-c2ccccc2[N+](=O)[O-])CC1 [Compound 238, 2-(3,5-Difluorophenyl)-N-(2-(4-methylpiperazin-1-yl)ethyl)-5-(2-nitrophenyl)oxazole-4-carboxamide]	40%	103%		6.3 µM				14%	45%	53 at %	49 at %	21.3 µM	19 µM		
CCCNC(=O)c1nc(-c2ccc(SC)cc2)oc1-c1ccccc1 [Compound 317, 2-(4-(Methylthio)phenyl)-5-phenyl-N-propyloxazole-4-carboxamide]								44%	43%					89 at %	47 at %
CCOC(=O)c1nc(-c2cccc(Cl)c2)oc1-c1ccccc1 [Compound 75, Ethyl 2-(3-chlorophenyl)-5-phenyloxazole-4-carboxylate]	93%	108%	11.7 µM					5%	26%	100 at %	106 at %				
CCNC(=O)c1nc(-c2ccc(C(F)(F)F)cc2)oc1-c1cccnc1 [Compound 307, N-Ethyl-5-(pyridin-3-yl)-2-(4-(trifluoromethyl)phenyl)oxazole-4-carboxamide]	106%			0.11 µM			61%	69%	79%					108 at %	105 at %
CCNC(=O)c1nc(-c2ccc(C(F)(F)F)cc2)oc1-c1cc(O)c(O)c(O)c1 [Compound 323, N-Ethyl-2-(4-(trifluoromethyl)phenyl)-5-(3,4,5-trihydroxyphenyl)oxazole-4-carboxamide]								45%	84%					77 at %	63 at %
CCCNC(=O)c1nc(-c2ccc(C(F)(F)F)cc2)oc1-c1cccnc1 [Compound 308, N-Propyl-5-(pyridin-3-yl)-2-(4-(trifluoromethyl)phenyl)oxazole-4-carboxamide]								56%	62%					29 at %	27 at %
CCNC(=O)c1nc(-c2ccc(C(F)(F)F)cc2)oc1-c1cc(O)cc(O)c1 [Compound 322, 5-(3,5-Dihydroxyphenyl)-N-ethyl-2-(4-(trifluoromethyl)phenyl)oxazole-4-carboxamide]								86%	73%					90 at %	63 at %
CCOC(=O)c1nc(-c2ccc(C(F)(F)F)cc2)oc1-c1ccc([N+](=O)[O-])cc1 [Compound 34, Ethyl 5-(4-nitrophenyl)-2-(4-(trifluoromethyl)phenyl)oxazole-4-carboxylate]	108%	108%	0.91 µM							85 at %	87 at %				
CCOC(=O)c1nc(-c2ccc(C(F)(F)F)cc2)oc1-c1cccc(C#N)c1 [Compound 55, Ethyl 5-(3-cyanophenyl)-2-(4-(trifluoromethyl)phenyl)oxazole-4-carboxylate]	115%	116%		0.09 µM				45%	52%	91 at %	90 at %				

The next lines start with results.

inhibition (IL33 and ST2 binding [2]; 30 µM)	inhibition (IL33 and ST2 binding [2]; 100 µM)	IC50 (IL33 and ST2 binding [4])	EC50 [3]	SMILES	Cellular viability (%) (+) microsome ([1]; at 135 μM)	Cellular viability (%) (−) microsome ([1]; at 135 μM)	inhibition at 0.1 µM [3]	inhibition at 1 µM [3]	inhibition at 10 µM [3]	Cellular viability (%) (+) microsome ([1]; at 100 μM)	Cellular viability (%) (−) microsome ([1]; at 100 μM)	CC50 at 24 h [5, 6]	CC50 at 24 h [5, 7]	Cellular viability (%) (+) microsome ([1]; at 160 μM)	Cellular viability (%) (−) microsome ([1]; at 160 μM)
47%			0.35 µM	CCNC(=O)c1nc(-c2ccc(SC)cc2)oc1-c1ccccc1 [Compound 316, N-Ethyl-2-(4-(methylthio)phenyl)-5-phenyloxazole-4-carboxamide]			25%	69%	77%					100 at %	84 at %
110%	109%	0.78 µM	0.23 µM	CCOC(=O)c1nc(-c2ccc(C(F)(F)F)cc2)oc1-c1ccccc1 [Compound 31, Ethyl 5-phenyl-2-(4-(trifluoromethyl)phenyl)oxazole-4-carboxylate]	66 at %	83 at %	46%	56%	69%						
			0.49 µM	CCOC(=O)c1nc(-c2ccc(SC)cc2)oc1-c1ccccc1 [Compound 90, Ethyl 2-(4-(methylthio)phenyl)-5-phenyloxazole-4-carboxylate]	74 at %	53 at %	33%	54%	55%			40.8 µM	14 µM		
95%			0.13 µM	CCNC(=O)c1nc(-c2ccc(C(F)(F)F)cc2)oc1-c1ccccc1 [Compound 294, N-Ethyl-5-phenyl-2-(4-(trifluoromethyl)phenyl)oxazole-4-carboxamide]			50%	88%	94%					90 at %	95 at %
31%	105%		0.86 µM	CSc1ccc(-c2nc(C(=O)NCCN(C)C)c(-c3ccccc3)o2)cc1 [Compound 271, N-(2-(Dimethylamino)ethyl)-2-(4-(methylthio)phenyl)-5-phenyloxazole-4-carboxamide]				14%	69%	52 at %	45 at %	6.12 µM	3.74 µM		
7%	70%		3.7 µM	CN(C)CCNC(=O)c1nc(-c2cccc(Cl)c2)oc1-c1ccccc1 [Compound 240, 2-(3-Chlorophenyl)-N-(2-(dimethylamino)ethyl)-5-phenyloxazole-4-carboxamide]				6%	44%	50 at %	45 at %	6.36 µM	5.46 µM		
